Data as given in publication PMC2916745 (Journal of medicinal chemistry, 2010).
Values belong to the compound of their own block, whether it stands above or below them.

Assays:
[1] = molecular target: T1, human ERα (Homo sapiens, UniProt P03372); assay: competitive radiometric binding assay with [3H]estradiol, ERα; conditions: relative binding affinity, IC50[estradiol]/IC50[compound] × 100, estradiol = 100; 10 nM [3H]estradiol, 18-24 h at 0 °C; average ± range or SD
T1 sequence (P03372 1-595): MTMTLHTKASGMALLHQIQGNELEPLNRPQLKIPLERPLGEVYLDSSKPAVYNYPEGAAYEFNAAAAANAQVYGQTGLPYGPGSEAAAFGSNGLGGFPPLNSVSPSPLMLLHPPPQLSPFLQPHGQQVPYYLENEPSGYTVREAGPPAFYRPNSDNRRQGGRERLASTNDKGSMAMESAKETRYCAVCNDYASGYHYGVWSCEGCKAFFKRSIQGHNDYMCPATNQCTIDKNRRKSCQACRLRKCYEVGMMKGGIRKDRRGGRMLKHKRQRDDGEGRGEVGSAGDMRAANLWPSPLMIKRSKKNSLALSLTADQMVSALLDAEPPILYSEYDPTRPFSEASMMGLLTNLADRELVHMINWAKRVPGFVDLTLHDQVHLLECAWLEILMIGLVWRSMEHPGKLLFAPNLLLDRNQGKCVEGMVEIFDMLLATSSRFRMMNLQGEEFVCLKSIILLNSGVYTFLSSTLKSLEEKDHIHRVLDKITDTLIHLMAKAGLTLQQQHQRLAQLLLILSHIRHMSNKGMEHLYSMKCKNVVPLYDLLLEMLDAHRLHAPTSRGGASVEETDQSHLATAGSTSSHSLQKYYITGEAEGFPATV

[2] = molecular target: human ERβ (Homo sapiens, UniProt Q92731); assay: competitive radiometric binding assay with [3H]estradiol, ERβ
Chain of human ERβ (Q92731 whole entry): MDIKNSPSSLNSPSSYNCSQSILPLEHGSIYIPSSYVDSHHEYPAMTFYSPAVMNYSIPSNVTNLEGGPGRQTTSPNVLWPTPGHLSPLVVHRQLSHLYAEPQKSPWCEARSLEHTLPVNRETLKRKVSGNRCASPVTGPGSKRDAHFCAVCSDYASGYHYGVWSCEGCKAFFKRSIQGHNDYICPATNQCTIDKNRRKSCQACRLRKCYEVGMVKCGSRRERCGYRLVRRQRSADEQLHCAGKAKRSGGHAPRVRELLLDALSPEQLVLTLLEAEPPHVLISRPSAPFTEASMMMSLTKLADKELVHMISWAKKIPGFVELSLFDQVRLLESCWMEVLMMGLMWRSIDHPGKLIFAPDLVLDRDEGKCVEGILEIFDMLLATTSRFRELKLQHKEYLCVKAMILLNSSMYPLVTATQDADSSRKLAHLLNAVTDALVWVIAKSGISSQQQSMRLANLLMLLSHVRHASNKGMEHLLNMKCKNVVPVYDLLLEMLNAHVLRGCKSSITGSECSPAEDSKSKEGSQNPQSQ

[3] = system: tamoxifen-resistant breast tumors; conditions: cited from earlier work
[4] = cited from earlier work
[5] = system: tamoxifen-resistant breast cancer cells; conditions: cited from earlier work
[6] = system: ERα-target genes; assay: real-time PCR analysis of ERα target genes in MCF-7 cells; format: cell-based, human; conditions: 1 μM compound, 1 nM E2, RNA level
[7] = Figure 6B, not fully reversed to control

RBA ERα [1]: 68 ± 18
β/α ([2]; ratio of RBA values, >1 for higher affinity on ERβ than on ERα): 4.9
RBA ERβ ([2]; relative binding affinity, IC50[estradiol]/IC50[compound] × 100, estradiol = 100, 10 nM [3H]estradiol, 18-24 h at 0 °C, average ± range or SD): 334 ± 54
Structure (SMILES): CC(=O)Oc1ccc(C(=C2CCCCC2)c2ccc(OC(C)=O)cc2)cc1 [Compound 2, cyclofenil]

Structure (SMILES): CC/C(=C(\c1ccccc1)c1ccc(/C=C/C(=O)O)cc1)c1ccccc1 [Compound 1]
growth of tamoxifen-resistant breast tumors [3]: can inhibit

Structure (SMILES): C[C@]12CC[C@@H]3c4ccc(O)cc4C[C@@H](CCCCCCCCC[S+]([O-])CCCC(F)(F)C(F)(F)F)[C@H]3[C@@H]1CC[C@@H]2O (some centres unmarked) [ICI 182,780]
oral bioavailability [4]: poor
growth of tamoxifen-resistant breast cancer cells [5]: capable of inhibiting

Structure (SMILES): CC/C(=C(\c1ccc(O)cc1)c1ccc(/C=C/C(=O)O)cc1)c1ccccc1 [Compound 4]
E2-mediated activation of the CA12 gene ([6]; Figure 6A): most effective
E2-mediated stimulation of the PR gene ([6]; Figure 6A): significantly blocked
E2-mediated stimulation of the pS2 gene ([6]; Figure 6A): significantly blocked
E2-mediated repression of BLNK gene expression [6, 7]: reduce
E2-mediated repression of ENC1 gene expression [6, 7]: reduce
